Experimental data taken from patent US20070066516A1, “Compounds comprising cyclized somatostatin receptor binding peptides” (priority 2005, published 2007).
Where a SMILES comes first, the peptide text is derived from it. Side-chain parts run from the residue outwards. [ ]: non-standard residue; d: D form. The star is where a group is joined. X1 = CC(C(=O)*)N1CCN(CC(=O)O)CCN(CC(=O)O)CCN(CC(=O)O)CC1; Tpi = O=C(O)[C@@H]1Cc2c([nH]c3ccccc23)CN1; Dip = N[C@H](C(=O)O)C(c1ccccc1)c1ccccc1; Phe(4-F) = N[C@@H](Cc1ccc(F)cc1)C(=O)O; 1Nal = N[C@@H](Cc1cccc2ccccc12)C(=O)O; 2Nal = N[C@@H](Cc1ccc2ccccc2c1)C(=O)O; Ala(cPr) = N[C@@H](CC1CC1)C(=O)O; NMeF = CN[C@@H](Cc1ccccc1)C(=O)O; 4Pal = N[C@@H](Cc1ccncc1)C(=O)O; Thz = O=C(O)[C@@H]1CSCN1; Dap = NC[C@H](N)C(=O)O

Legend:
SSTR2 = SSTR2 (Homo sapiens, UniProt P30874); assay: Radioligand binding assay on membranes of CHO-K1 cells expressing SSTR2; settings: membranes from CHO-K1 cells stably expressing cloned somatostatin receptor 2
Sequence of SSTR2 (P30874 whole entry): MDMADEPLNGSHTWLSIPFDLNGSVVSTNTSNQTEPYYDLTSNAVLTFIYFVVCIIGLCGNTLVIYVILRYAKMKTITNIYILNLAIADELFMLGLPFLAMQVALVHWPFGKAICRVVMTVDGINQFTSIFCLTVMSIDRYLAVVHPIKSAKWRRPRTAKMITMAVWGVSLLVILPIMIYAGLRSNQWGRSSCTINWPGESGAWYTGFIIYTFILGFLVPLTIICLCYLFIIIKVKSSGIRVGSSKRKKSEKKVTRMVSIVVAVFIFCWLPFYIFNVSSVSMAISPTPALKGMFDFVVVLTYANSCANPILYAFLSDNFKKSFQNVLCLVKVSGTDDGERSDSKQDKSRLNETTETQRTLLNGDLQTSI
Protocol: (§1) Radiolabeling binding assays were carried out as described in the prior art like, e.g. in Gazal S. et al (2002) J. Med. Chem. 45: 1665-1671. The radioligand binding assays were carried out on membranes prepared from CHO-K1 cells stably expressing individually cloned somatostatin receptors 2 or 5 (SSTR2 or SSTR5). Cells were grown for 2 days for almost confluence and were washed and scraped into 50 mM ice-cold Tris-HCl, pH 7.8, containing 1 mM EGTA, 5 mM MgCl2, […], 0.1 mM PMSF, and 0.5 mg/mL aprotinin (buffer A) and were centrifuged at 10,000 rpm for 10 min at 4° C. (in Sorvall RC 26 Plus ultracentrifuge, rotor SS-34). The pellet was resuspended in buffer A and homogenized with a Polytron PT 1200 homogenizer (Kinematica AG, Switzerland) (setting 2, 3 strokes 10 s each). The homogenate was then centrifuged at 20 000 rpm for 20 min at 4° C. The pellet was resuspended in buffer A and homogenized using the Polytron homogenizer (setting 2, 3 strokes 5 s each). The protein content was determined by Bradford, and the membrane preparation was diluted in buffer A containing 1 mg/mL bovine serum albumin (BSA) to a final 0.2 or 0.4 mg/mL membrane protein (depending on the specific somatostatin receptor used).
(§2) The radioligand binding assay was performed in 96 well microtiter plates (Maxisorp plates, Nunc, Denmark). Cell membranes ([…] protein) were incubated with the various cyclized peptides indicated in Table 1 & 2, which comprised a lanthanide chelation unit, in a final volume of 250 μL, for 45 min. at room temperature in the presence or absence of competing peptides. Nonspecific binding was defined as the radioactivity remaining bound in the presence of […] somatostatin. At the end of the binding, reaction free radioligand was separated from bound Ligand by rapid filtration through UniFilter GF/C plates preincubated in a solution of 5 g/L polyethyleneimine and 1 g/L BSA. The filtration was performed in Filter-Mate Cell Harvester (Packard Instrument Company, U.S.A.). After filtration, the filters were washed several times with cold buffer A containing 1 mg/mL BSA and allowed to dry overnight at room temperature. Then, bound radioactivity was counted. The binding assays were performed in triplicate wells. Data from radioligand binding were used to generate inhibition curves, and IC50 values were determined for each of the tested peptides. The saturation binding data were analyzed by the method of Scatchard, and IC50 values are expressed as mean±SEM (standard error of the mean).

SSTR5 = SSTR5 (Homo sapiens, UniProt P35346); assay: Radioligand binding assay on membranes of CHO-K1 cells expressing SSTR5; settings: for IC50: membranes from CHO-K1 cells stably expressing cloned somatostatin receptor 5; for Ratio 2/5 in %: ratio of IC50 SSTR2 / IC50 SSTR5 in %
Sequence of SSTR5 (P35346 whole entry): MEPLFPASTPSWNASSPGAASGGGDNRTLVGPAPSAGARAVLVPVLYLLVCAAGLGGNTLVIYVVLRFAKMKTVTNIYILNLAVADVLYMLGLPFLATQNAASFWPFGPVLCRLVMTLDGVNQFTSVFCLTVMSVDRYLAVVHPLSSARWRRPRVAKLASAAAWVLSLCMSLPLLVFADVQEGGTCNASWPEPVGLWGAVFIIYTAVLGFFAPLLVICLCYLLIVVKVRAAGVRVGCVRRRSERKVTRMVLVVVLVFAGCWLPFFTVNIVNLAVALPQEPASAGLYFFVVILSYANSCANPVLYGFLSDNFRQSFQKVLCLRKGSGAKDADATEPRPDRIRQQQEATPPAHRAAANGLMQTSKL
Protocol: as §1, §2

somatostatin receptor 5 = target: T1, somatostatin receptor 5 (UniProt P35346 1-364, limits assumed); assay: ratio of IC50 on SSTR2 to IC50 on SSTR5 (reference SSTR2), radioligand competition binding on CHO-K1 membranes
T1 construct: whole, on cells; Assayed as membrane preparation of CHO-K1 cells stably expressing the cloned receptor; also called SSTR5; somatostatin receptor subtype 5
T1 sequence (P35346 whole entry): as above

| Molecule | IC50 (SSTR2) | IC50 (SSTR5) | Ratio 2/5 in % (SSTR5) | Ratio 2/5 in % (somatostatin receptor 5) |
| --- | --- | --- | --- | --- |
| cyclo([1Nal][dW]KTM[NMeF]) (also: tested peptides comprised a lanthanide chelation unit, not shown, also called cyclo[(1)Nal-DTrp-Lys-Thr-Met-(NMe)Phe]) [P2278] | – | – | – | 27.9% |
| cyclo([1Nal][dW]KVM[NMeF]) (SMILES CSCC[C@@H]1NC(=O)[C@H](C(C)C)NC(=O)[C@H](CCCCN)NC(=O)[C@@H](Cc2c[nH]c3ccccc23)NC(=O)[C@H](Cc2cccc3ccccc23)NC(=O)[C@H](Cc2ccccc2)N(C)C1=O, Cyclic hexapeptide; also called cyclo[1Nal-DTrp-Lys-Val-Met-(N-Me)Phe]) [P2329] | – | – | – | 10.5% |
| cyclo(Y[dW]KTM[NMeF]) (SMILES CSCC[C@@H]1NC(=O)[C@H]([C@@H](C)O)NC(=O)[C@H](CCCCN)NC(=O)[C@@H](Cc2c[nH]c3ccccc23)NC(=O)[C@H](Cc2ccc(O)cc2)NC(=O)[C@H](Cc2ccccc2)N(C)C1=O, Cyclic hexapeptide; also called cyclo[Tyr-DTrp-Lys-Thr-Met-(NMe)Phe]) [P2265] | – | – | – | 1.2% |
| cyclo([Phe(4-F)][dW]KTM[NMeF]) (SMILES CSCC[C@@H]1NC(=O)[C@H]([C@@H](C)O)NC(=O)[C@H](CCCCN)NC(=O)[C@@H](Cc2c[nH]c3ccccc23)NC(=O)[C@H](Cc2ccc(F)cc2)NC(=O)[C@H](Cc2ccccc2)N(C)C1=O, Cyclic hexapeptide; also called cyclo[Phe(4-F)-DTrp-Lys-Thr-Met-(N-Me)Phe]) [P2292] | – | – | – | 2% |
| cyclo(Y[dW]KVM[NMeF]) (SMILES CSCC[C@@H]1NC(=O)[C@H](C(C)C)NC(=O)[C@H](CCCCN)NC(=O)[C@@H](Cc2c[nH]c3ccccc23)NC(=O)[C@H](Cc2ccc(O)cc2)NC(=O)[C@H](Cc2ccccc2)N(C)C1=O, Cyclic hexapeptide; also called cyclo[Tyr-DTrp-Lys-Val-Met-(NMe)Phe]) [P2266] | – | – | – | 3.2% |
| cyclo([Dip][dW]KTM[NMeF]) (SMILES CSCC[C@@H]1NC(=O)[C@H]([C@@H](C)O)NC(=O)[C@H](CCCCN)NC(=O)[C@@H](Cc2c[nH]c3ccccc23)NC(=O)[C@H](C(c2ccccc2)c2ccccc2)NC(=O)[C@H](Cc2ccccc2)N(C)C1=O, Cyclic hexapeptide; also called cyclo[DiphenylAla-DTrp-Lys-Thr-Met-(N-Me)Phe]) [P2326] | – | – | – | 0.42% |
| cyclo([Thz][dW]KTMF) (SMILES CSCC[C@@H]1NC(=O)[C@H]([C@@H](C)O)NC(=O)[C@H](CCCCN)NC(=O)[C@@H](Cc2c[nH]c3ccccc23)NC(=O)[C@@H]2CSCN2C(=O)[C@H](Cc2ccccc2)NC1=O, Cyclic hexapeptide; also called cyclo[ThioPro-DTrp-Lys-Thr-Met-Phe]) [P2297] | – | – | – | 37.1% |
| cyclo([4Pal][dW]KTM[NMeF]) (SMILES CSCC[C@@H]1NC(=O)[C@H]([C@@H](C)O)NC(=O)[C@H](CCCCN)NC(=O)[C@@H](Cc2c[nH]c3ccccc23)NC(=O)[C@H](Cc2ccncc2)NC(=O)[C@H](Cc2ccccc2)N(C)C1=O, Cyclic hexapeptide; also called cyclo[(4)Pal-DTrp-Lys-Thr-Met-(NMe)Phe]) [P2281] | – | – | – | 0.36% |
| cyclo([2Nal][dW]KTM[NMeF]) (SMILES CSCC[C@@H]1NC(=O)[C@H]([C@@H](C)O)NC(=O)[C@H](CCCCN)NC(=O)[C@@H](Cc2c[nH]c3ccccc23)NC(=O)[C@H](Cc2ccc3ccccc3c2)NC(=O)[C@H](Cc2ccccc2)N(C)C1=O, Cyclic hexapeptide; also called cyclo[2Nal-Dtrp-Lys-Thr-Met-(N-Me)Phe]) [P2279] | – | – | – | 37.2% |

Next, values leading:

| IC50 (SSTR2) | IC50 (SSTR5) | Ratio 2/5 in % (SSTR5) | Ratio 2/5 in % (somatostatin receptor 5) | Molecule |
| --- | --- | --- | --- | --- |
| 0.032 nM | 22 nM | 0.15% | – | C[C@@H](O)[C@@H]1NC(=O)[C@H](CCCCN)NC(=O)[C@@H](Cc2c[nH]c3ccccc23)NC(=O)[C@H](Cc2ccc(O)cc2)NC(=O)[C@H](CCS)N(C)C(=O)[C@H](Cc2ccccc2)NC1=O [P1839, cyclo[Tyr-DTrp-Lys-Thr-Phe-(NMe)hCys], reference compound] |
| 0.139 nM | 11.6 nM | 1.2% | – | CSCC[C@@H]1NC(=O)[C@H]([C@@H](C)O)NC(=O)[C@H](CCCCN)NC(=O)[C@@H](Cc2c[nH]c3ccccc23)NC(=O)[C@H](Cc2ccc(O)cc2)NC(=O)[C@H](Cc2ccccc2)N(C)C1=O [P2265, cyclo[Tyr-DTrp-Lys-Thr-Met-(NMe)Phe]] (cyclo(Y[dW]KTM[NMeF])) |
| 0.256 nM | 8.12 nM | 3.2% | – | CSCC[C@@H]1NC(=O)[C@H](C(C)C)NC(=O)[C@H](CCCCN)NC(=O)[C@@H](Cc2c[nH]c3ccccc23)NC(=O)[C@H](Cc2ccc(O)cc2)NC(=O)[C@H](Cc2ccccc2)N(C)C1=O [P2266, cyclo[Tyr-DTrp-Lys-Val-Met-(NMe)Phe]] (cyclo(Y[dW]KVM[NMeF])) |
| – | – | 1.9% | – | CSCC[C@@H]1NC(=O)[C@H](CN)NC(=O)[C@H](CCCCN)NC(=O)[C@@H](Cc2c[nH]c3ccccc23)NC(=O)[C@H](Cc2ccc(O)cc2)NC(=O)[C@H](Cc2ccccc2)N(C)C1=O [P2267, cyclo[Tyr-DTrp-Lys-Dpr-Met-(NMe)Phe]] (cyclo(Y[dW]K[Dap]M[NMeF])) |
| – | – | 6.1% | – | CSCC[C@@H]1NC(=O)[C@H]([C@@H](C)O)NC(=O)[C@H](CCCCN)NC(=O)[C@@H](Cc2c[nH]c3ccccc23)NC(=O)[C@H](Cc2ccc(O)cc2)NC(=O)[C@@H]2Cc3c([nH]c4ccccc34)CN2C1=O [P2274, cyclo[Tyr-DTrp-Lys-Thr-Met-Tpi]] (cyclo(Y[dW]KTM[Tpi])) |
| 0.444 nM | 1.59 nM | 27.9% | – | CSCC[C@@H]1NC(=O)[C@H]([C@@H](C)O)NC(=O)[C@H](CCCCN)NC(=O)[C@@H](Cc2c[nH]c3ccccc23)NC(=O)[C@H](Cc2cccc3ccccc23)NC(=O)[C@H](Cc2ccccc2)N(C)C1=O [P2278, cyclo[(1)Nal-DTrp-Lys-Thr-Met-(NMe)Phe]] (cyclo([1Nal][dW]KTM[NMeF])) |
| 5.58 nM | 15 nM | 37.2% | – | CSCC[C@@H]1NC(=O)[C@H]([C@@H](C)O)NC(=O)[C@H](CCCCN)NC(=O)[C@@H](Cc2c[nH]c3ccccc23)NC(=O)[C@H](Cc2ccc3ccccc3c2)NC(=O)[C@H](Cc2ccccc2)N(C)C1=O [P2279, cyclo[2Nal-Dtrp-Lys-Thr-Met-(N-Me)Phe]] (cyclo([2Nal][dW]KTM[NMeF])) |
| 0.154 nM | 43.3 nM | 0.36% | – | CSCC[C@@H]1NC(=O)[C@H]([C@@H](C)O)NC(=O)[C@H](CCCCN)NC(=O)[C@@H](Cc2c[nH]c3ccccc23)NC(=O)[C@H](Cc2ccncc2)NC(=O)[C@H](Cc2ccccc2)N(C)C1=O [P2281, cyclo[(4)Pal-DTrp-Lys-Thr-Met-(NMe)Phe]] (cyclo([4Pal][dW]KTM[NMeF])) |
| – | – | 0.96% | – | CSCC[C@@H]1NC(=O)[C@H](CC2CC2)NC(=O)[C@H](CCCCN)NC(=O)[C@@H](Cc2c[nH]c3ccccc23)NC(=O)[C@H](Cc2ccc(O)cc2)NC(=O)[C@H](Cc2ccccc2)N(C)C1=O [P2300, cyclo[Tyr-DTrp-Lys-BAla(cyclopropyl)-Met-(N-Me)Phe]] (cyclo([Ala(cPr)]M[NMeF]Y[dW]K)) |
| – | – | 399.1% | – | CC(C(=O)NCC(=O)NCCCC[C@@H]1NC(=O)[C@H]([C@@H](C)O)NC(=O)[C@H](CCCCN)NC(=O)[C@@H](Cc2c[nH]c3ccccc23)NC(=O)[C@H](Cc2cccc3ccccc23)NC(=O)[C@H](Cc2ccccc2)N(C)C1=O)N1CCN(CC(=O)O)CCN(CC(=O)O)CCN(CC(=O)O)CC1 (stereo partly drawn) [P2323, cyclo[1Nal-DTrp-Lys-Thr-Lys(GlyMeDOTA)-(N-Me)Phe]] (cyclo([1Nal][dW]KTK([Gly-X1])[NMeF])) |
